Measured values: patent EP0705601B1, “Anthraquinones containing solutions for parenteral administration” (LOMAPHARM Rudolf Lohmann GmbH KG Pharmazeutische Fabrik, priority 1994, dated 1996)
Where two headings read alike, the source gives them in different places.

Experiments:
[1] = Increase of solubility with the solubilisers of the invention relative to purely aqueous phase; assay type: physicochemical; details: fold increase versus solubility in purely aqueous phase, with solubilisers I-III
From the text: Überraschenderweise wurde nun gefunden, daß die Löslichkeit der Anthrachinone durch den Einsatz von mindestens einem Lösungsvermittler ausgewählt aus • I. Polyethylenglykol-660-12-Hydroxystearat • II. Tetrahydrofurfurylalkoholpolyethylenglykolether • III. Wasserlösliche Beta- und Gamma-Cyclodextrinderivate, allein oder in Kombination mit anderen, physiologisch geeigneten, nichtwäßrigen Lösungsmitteln bzw. Lösungsvermittlern um mehr als das Hundertfache ihrer Löslichkeit in rein wäßriger Phase erhöht werden kann.

[2] = man; D. Lorenz et al. 1985; cited from earlier work
[3] = water, Raumtemperatur, cited from earlier work

O=C1c2ccccc2C(=O)c2c1ccc(O)c2O [Alizarin]
Erhöhung der Löslichkeit [1]: mehr als das Tausendfache | Halbwertzeit [2]: ca. 12 Std. | Löslichkeit in Wasser [3]: ca. 2 µmol/l | Löslichkeit in Wasser ([3]; conversion of the µmol/l value): ≈ 0,48 mg/l
